“And” between values parts separate entries of the source, which are not always exact repeats. Equal entries are not always repeated. Where two headings read alike, the source gives them in different places.

For data set [1], the system named is CC acylase N-176. Type of data set: biochemical, Pseudomonas diminuta N-176. Conditions: pH 9. On the procedure: Effect of p-chloromercuribenzoate (pCMB, Sigma Chemical Co., Ltd.), phenylmethylsulfonyl fluoride (PMSF, Sigma) and ethylenediaminetetraacetic acid (EDTA, Nacalai Tesque Inc., Japan) on the activity of CC acylase N-176 was examined as follows. Four μg of CC acylase N-176 was treated at 37° C. for 4 hours with 0.1 or 1.0 mM pCMB, 0.1, 1.0, 2.0 or 5.0 mM PMSF, or 1.0 or 5.0 mM EDTA in 200 μl of 0.1M glycine buffer (pH 9). Residual activity of the treated enzyme was assayed by adding 22 μl of GL-7ACA (100 mg/ml) as a substrate to the mixture The reaction was performed at 37° C. for 2 min. Residual activity was expressed as a percentage compared to the activity of the enzyme treated with blank solution.

Data set [2] relates to CC acylase N-176. Nature of the data set: Specific enzyme activity, HPLC assay (Vmax and Km by Lineweaver-Burk plot). It is filed as biochemical, Pseudomonas diminuta N-176. Particulars: substrate of CC acylase N-176, 100 mM glycine buffer pH 9, 37° C., 2 min; for Km: read-out: Michaelis constant (Km). As for the experimental part:
(§1) Transformant colonies were picked up and grown overnight at 30° C. in 1 ml of 2% Bouillon (Eiken Chemical Co., Ltd., Japan) supplemented with 1 mM […] (IPTG: Sigma Chemical Co., Ltd., U.S.A.). Cells were harvested by centrifugation and resulting cell pellets were used for assay. Reaction mixture (200 μl) containing 100 mM phosphate (pH 8), 2 mg of GL-7ACA or cephalosporin C Na and cell pellets were thoroughly mixed and incubated for 10 min at 37° C. The reaction was terminated by the addition of 200 μl of 4% acetic acid. Samples were applied to a Inertsil ODS-2 column (4.6 mm×150 mm)(Gasukuro Kogyo Co., Ltd., Japan) and elution was performed with 0.567 g/l of Na2 PO4, 0.36 g/l of KH2 PO4 and 2-4% methanol. 7ACA was detected with absorption at 254 nm.
The activity of the cephalosporin C acylase was determined by HPLC assay. Reaction mixtures (200 μl) containing 100 mM glycine buffer (pH 9), 1.25-40 mM Cephalosporin C Li and 19 μg of the enzyme is used for assay of cephalosporin C acylase, meanwhile for assay of GL-7ACA acylase activity, reaction mixture (200 μl) containing 100 mM glycine buffer (pH 9), 0.48-10.4 mM GL-7ACA and 0.5 μg of the enzyme is used. Reaction mixtures were incubated for 2 min at 37° C. and the reaction was terminated by addition of 200 μl of 4% acetic acid. Conditions for HPLC were the same as those described in Example 1.3. All assays used later in this section was HPLC method. Specific enzyme activity was expressed as unit per mg of protein. Protein concentrations were determined by Bio-Rad protein assay kit (Bio-Rad Co., Ltd., U.S.A.) with bovine serum albumin as a standard. Maximum specific enzyme activity (Vmax) and Michaelis constant (Km) were calculated from slope and intersection which were obtained by Lineweaver-Burk plot (Cf. M. Dixon and E. C. Webb, Enzymes, Longmans, London, 1958). Maximum specific enzyme activity of CC acylase N-176 was 100 and 3.1 units/mg for GL-7ACA and cephalosporin C, respectively.

Data set [3] deals with CC acylase N-176. Nature of the data set: Substrate profile of CC acylase N-176, HPLC assay. It is filed as biochemical, Pseudomonas diminuta N-176. Conditions: percentage compared to the activity for GL-7ACA; 2 mg substrate, 20 μg enzyme, pH 9, 50° C., 2 min. On the procedure: as §1
Enzyme activity was determined by HPLC assay. Reaction mixture (200 μl) containing 100 mM glycine buffer (pH 9), 2 mg of a substrate and 20 μg of the enzyme was incubated at 50° C. for 2 min and the reaction was terminated by addition of 4% acetic acid. The relative enzyme activity was expressed as a percentage compared to the activity for GL-7ACA. To be noted, acylase activity for cephalosporin C was examined also by detecting the production of α-aminoadipic acid with the amino acid analyzer (Hitachi Co., Ltd., Japan).

The test system of data set [4] is CC acylase N-176. Kind of data set: Determination of inhibition constants (Ki) for reaction products, GL-7ACA acylase activity. Type of data set: biochemical, Pseudomonas diminuta N-176. Conditions: for mode of inhibition: Lineweaver-Burk plots in absence and presence of inhibitor; for Ki: substrate GL-7ACA, 0.1M glycine buffer pH 9, 37° C., 3 min. As for the experimental part: Enzyme activity was assayed in the presence of 7-ACA or glutaric acid. For determination of Ki of 7-ACA, reaction mixtures (200 μl) containing 0.1M glycine buffer (pH 9), 0.26-2.08 μmole of GL-7ACA, 0.182-1.0 μmole of 7-ACA and 1 μg of enzyme was incubated at 37° C. for 3 min. For determination of Ki of glutaric acid, reaction mixture (200 μl) containing 0.1M glycine buffer (pH 9), 0.096-2.08 μmole of GL-7ACA, 0.25-0.5 μmole of glutaric acid and 0.5 μg of the enzyme was incubated at 37° C. for 3 min. […] Ki values were calculated from the apparent Michaelis constants (Kmapp), Km and Vmax.

Data set [5] in a line: Optimum temperature of the enzyme. Type of data set: biochemical. Conditions: 0.1M glycine buffer pH 9, 2 mg GL-7ACA, 2 min, 25° to 60° C. On the procedure: Reaction mixture (200 μl) containing 0.1M glycine buffer (pH 9), 2 mg of GL-7ACA and 2 μg of the enzyme were incubated for 2 min at various temperature from 25° to 60° C. The optimum temperature was 50° C.
Data set [6] is described as follows: Determination of isoelectric point (pI) by analytical isoelectric focusing. Type of data set: physicochemical. Particulars: 4% polyacrylamide gel, Ampholine pH range 3.5-10. On the procedure:
Analytical isoelectric focusing of CC acylase N-176 was performed according to the method of Olson et al(Cf.FEMS Microbiol. Lett. 1, 157-162(1977)). Purified acylase preparation was applied on thin layer of 4% polyacrylamide gel containing 2% Ampholine pH range 3.5-10 (Pharmacia LKB Biotechnology, Sweden). The proteins were electrofocused for 2 hours at 100 volts using isoelectric focusing apparatus SJ-1071EC (ATTO Co., Ltd., Japan). After electrofocusing, the gel was stained with Coomassie Brilliant Blue R-250 and the isoelectric point was determined from the calibration curve made with pI markers (Pharmacia LKB Technology) which were run simultaneously with the sample. The pI value of CC acylase N-176 was estimated to be 4.5.

A further data set in a line: Optimum pH of the enzyme. It is filed as biochemical. Particulars: 0.1M buffers pH 6-10, 37° C., 2 min. As for the experimental part:
Reaction mixture (200 μl) containing 0.1M buffer (phosphate buffer between pH 6-8, Tris HCl buffer between pH 7-9 and glycine buffer between pH 8-10), 2 mg of GL-7ACA or 3.3 mg of cephalosporin C Li and 3 μg of the enzyme was used. The reaction was performed at 37° C. for 2 min. Optimum pH for the enzyme was 9.

[7] abbreviates: inhibitor 0.1 mM, treated at 37° C. for 4 hours, substrate GL-7ACA.
[8] abbreviates: inhibitor 1.0 mM, treated at 37° C. for 4 hours, substrate GL-7ACA.

`O=C(O)CN(CCN(CC(=O)O)CC(=O)O)CC(=O)O` [EDTA, ethylenediaminetetraacetic acid]: the “Residual enzyme activity (%)” value with CC acylase N-176 [1] was 91% and 73%.
The term Km denotes the substrate concentration at which the rate is half of its maximum. For the molecule `CC(=O)OCC1=C(C(=O)O)N2C(=O)[C@@H](NC(=O)CCCC(=O)O)[C@H]2SC1` [Glutaryl 7ACA, 7(4-carboxybutanamdio)-3-acetoxymethyl-3-cephem-4-carboxylic acid], in the data set on CC acylase N-176 [2], the “Maximum specific enzyme activity (Vmax)” value amounted to 100 units/mg and the Km was found to be 2.6 mM. In addition, the Relative enzyme activity with CC acylase N-176 [3] was 100%.
Regarding `O=S(=O)(F)Cc1ccccc1` [PMSF, phenylmethylsulfonyl fluoride], the “Residual enzyme activity (%)” value is recorded as 96% with CC acylase N-176 [1] (setting [7]); 91% in the data set with CC acylase N-176 [1] (setting [8]); 79% in the data set on CC acylase N-176 [1] (inhibitor 2.0 mM, treated at 37° C. for 4 hours, substrate GL-7ACA); 62% with CC acylase N-176 [1] (inhibitor 5.0 mM, treated at 37° C. for 4 hours, substrate GL-7ACA).
`CC(=O)OCC1=C(C(=O)O)N2C(=O)[C@@H](NC(=O)CCC[C@@H](NC(=O)c3ccccc3)C(=O)O)[C@H]2SC1` [N-Benzyoylcephalosporin C, N-benzoylcephalosporin C] displayed a Relative enzyme activity in the data set with CC acylase N-176 [3] of 0.0003%.
The term Ki denotes the dissociation constant of the complex between target and ligand, obtained from inhibition or displacement. The low end stands for higher affinity, the high end for lower affinity. `O=C(O)CCCC(=O)O` [glutaric acid]: in the data set with CC acylase N-176 [4], the mode of inhibition result is “competitive” and the affinity, expressed as Ki, was 2500 µM.
Turning to `CC(=O)OCC1=C(C(=O)O)N2C(=O)[C@@H](NC(=O)CCC(=O)O)[C@H]2SC1` [Succinyl 7ACA, 7(3-carboxypropionamido)-3-acetoxymethyl-3-cephem-4-carboxylic acid], the Relative enzyme activity in the data set on CC acylase N-176 [3] is given as 32%.
In turn, `CC(=O)N[C@H](CCCC(=O)N[C@@H]1C(=O)N2C(C(=O)O)=C(COC(C)=O)CS[C@H]12)C(=O)O` [N-Acetylcephalosporin C] gave a Relative enzyme activity in the data set with CC acylase N-176 [3] of 0.1%.
`CC(=O)OCC1=C(C(=O)O)N2C(=O)[C@@H](N)[C@H]2SC1` [7-ACA, 7-aminocephalosporanic acid]: in the data set on CC acylase N-176 [4], the mode of inhibition entry was “competitive” and the affinity, expressed as Ki, was 1400 µM.
Regarding `CC(=O)OCC1=C(C(=O)O)N2C(=O)[C@@H](NC(=O)Cc3cccs3)[C@H]2SC1` [Cephalothin], the Relative enzyme activity in the data set on CC acylase N-176 [3] came to 0.08%.
Turning to `CC(=O)OCC1=C(C(=O)O)N2C(=O)[C@@H](NC(=O)CCC[C@@H](N)C(=O)O)[C@H]2SC1` [Cephalosporin C], in the data set with CC acylase N-176 [2], the “Maximum specific enzyme activity (Vmax)” value came out at 3.1 units/mg and the Km amounted to 4.8 mM. For the same molecule, in the data set with CC acylase N-176 [3], the Relative enzyme activity is on record as 4%.
Consider `CC(=O)OCC1=C(C(=O)O)N2C(=O)[C@@H](NC(=O)CCCCC(=O)O)[C@H]2SC1` [Adipyl 7ACA, 7(5-carboxypentanamido)-3-acetoxymethyl-3-cephem-4-carboxyli acid], for which the Relative enzyme activity in the data set with CC acylase N-176 [3] turned out to be 19%.
For the molecule `O=C(O)c1cc[c]([Hg][Cl])cc1` [pCMB, p-chloromercuribenzoate], the entries for the “Residual enzyme activity (%)” value in the data set on CC acylase N-176 [1] (setting [7]) and in the data set on CC acylase N-176 [1] (setting [8]) were 7.8% and 4.6%, respectively.

B1: CC acylase N-176: new cephalosporin C acylase derived from Pseudomonas diminuta N-176, composed of α and β subunits (protein)
chain: MTMAANTDRAVLQAALPPLSGSLPIPGLSASVRVRRDAWGIPHIKASGEADAYRALGFVHSQDRLFQMELTRRKALGRAAEWLGAEAAEADILVRRLGMEKVCRRDFEALGVEAKDMLRAYVAGVNAFLASGAPLPVEYGLLGAEPEPWEPWHSIAVMRRLGLLMGSVWFKLWRMLALPVVGAANALKLRYDDGGRDLLCIPPGAEADRLEADLATLRPAVDALLKAMGGDASDAAGGGSNNWAVAPGRTATGRPILAGDPHRVFEIPGMYAQHHLACDRFDMIGLTVPGVPGFPHFAHNGKVAYCVTHAFMDIHDLYLEQFAGEGRTARFGNDFEPVAWSRDRIAVRGGADREFDIVETRHGPVIAGDPRDGAALTLRSVQFAETDLSFDCLTRMPGASTVAQLYDATRGWGLIDHNLVAGDVAGSIGHLVRARVPSRPRENGWLPVPGWSGEHEWRGWIPHEAMPRVIDPPGGIIVTANNRVVADDHPDYLCTDCHPPYRAERIMKRLVANPAFAVDDAAAIHADTLSPHVGLLRRRLEALGARDDSAAEGLRQMLVAWDGRMDAASEVASAYNAFRRALTRLVTDRSGLEQAISHPFAAVAPGVSPQGQVWWAVPTLLRDDDAGMLKGWSWDQALSEALSVASQNLTGRSWGEEHRPRFTHPLATQFPAWAGLLNPASRPIGGDGDTVLANGLVPSAGPQATYGALSRYVFDVGNWDNSRWVVFHGASGHPASAHYADQNAPWSDCAMVPMLYSWDRIAAEAVTSQELVPA
Turning to B1, the optimum temperature in data set [5] is 50 °C. Besides, the pI value in data set [6] is on record as roughly 4.5. In “Optimum pH of the enzyme”, the “Optimum pH” value is 9.

(Values after patent publication US5320948A, “Cephalosporin C acylase” (Fujisawa Pharmaceutical Co., Ltd., priority 1990, dated 1994).)
